Data reported in PMC6273932, “Xanthium strumarium as an Inhibitor of α-Glucosidase, Protein Tyrosine Phosphatase 1β, Protein Glycation and ABTS^+ for Diabetic and Its Complication” (Molecules, 2016).
Converted amounts (≈) assume the structure as drawn.

Columns and labels:
[1] = molecular target: α-glucosidase; design: method as in ref 15 (Chen et al.); conditions: compounds isolated from aerial parts of Gynura divaricate; ref 15 (Chen et al.); read-out: inhibitory effects against α-glucosidase; cited from earlier work
[2] = tested on: PTP1β; design: method as in ref 16 (Hwang et al.); conditions: compounds isolated from Zea mays L.; ref 16 (Hwang et al.); read-out: PTP1β inhibitory activity IC50; cited from earlier work
[3] = tested on: α-glucosidase from Saccharomyces sp.; test: α-glucosidase inhibitory activity assay (pNPG substrate, absorbance 405 nm); assay type: biochemical
Description: ^1H- and ^13C-NMR spectra and correlation NMR spectra such as COSY, HMBC, HMQC, and DEPT were obtained from a Bruker Avance DPX 400 (or 600) spectrometer (Berlin, Germany). These were obtained at operating frequencies of 400 MHz (^1H) and 100 (or 150) MHz (^13C) with CD3OD, (CD3)2SO, (CD3)2CO, or D2O and TMS was used as an internal standard; chemical shifts were reported in δ values. The α-glucosidase from Saccharomyces sp. (SSG) was purchased from Wako Pure Chemical Industries Ltd (Tokyo, Japan). […] All other chemicals and reagents used were of analytical grade.
The α-glucosidase inhibitory activity of the extracts and fractions was determined using a modified procedure reported method with a slight modification. The α-glucosidase activity was measured using the substrate p-nitrophenyl-α-D-glucopyranoside (pNPG), which is hydrolyzed by α-glucosidase to release the product p-nitrophenol, a colorant that can be monitored at 405 nm. The initial concentration of the enzyme solution was 0.62 unit/mL in 0.1 M phosphate buffer (pH 6.9) and the initial concentration of the substrate solution was 2 mM in the same phosphate buffer. The enzyme solution was mixed with water and the samples or controls in a clear 96-well microplate (flat bottom) and the reaction was initiated by addition of the substrate to the solution. The plates were incubated at 37 °C for 5 min and the reaction was terminated by the addition of 0.1 M Na2CO3. […] Background absorbance was determined using a non-enzyme control microplate containing the buffer and was subtracted from the absorbance of the samples and controls.

[4] = tested on: advanced glycation end products (AGEs); test: AGEs inhibitory activity, bovine serum albumin-methylglyoxal assay (fluorescence); assay type: biochemical; conditions: for IC50 AGEs: - is no activity
Description: The modified procedure of Lee et al. was followed. Bovine serum albumin (10 mg/mL) was incubated with 5 mM methylglyoxal in sodium phosphate buffer (100 mM; pH 7.4). […] All of the reagents and samples were […] by filtration through 0.2 μm membrane filters and the mixture was incubated at 37 °C for 7 days. The fluorescence intensity was measured at an excitation wavelength of 330 nm and an emission wavelength of 410 nm with a LS50B fluorescence spectrometer Perkin-Elmer Ltd., (Buckinghamshire, FLS, UK). Aminoguanidine was also tested as a known inhibitor.

[5] = molecular target: T1, protein tyrosine phosphatase 1β (PTP1β) (Homo sapiens, UniProt P18031); test: PTP1β inhibitory activity assay (colorimetric kit, IR5 phosphopeptide substrate); assay type: biochemical; conditions: for inhibition at 10 µg/mL: 10 μg/mL; for inhibition at 10 µg/mL / IC50: - is no activity; for IC50: isolated compounds
T1 sequence (P18031 1-322 limits assumed): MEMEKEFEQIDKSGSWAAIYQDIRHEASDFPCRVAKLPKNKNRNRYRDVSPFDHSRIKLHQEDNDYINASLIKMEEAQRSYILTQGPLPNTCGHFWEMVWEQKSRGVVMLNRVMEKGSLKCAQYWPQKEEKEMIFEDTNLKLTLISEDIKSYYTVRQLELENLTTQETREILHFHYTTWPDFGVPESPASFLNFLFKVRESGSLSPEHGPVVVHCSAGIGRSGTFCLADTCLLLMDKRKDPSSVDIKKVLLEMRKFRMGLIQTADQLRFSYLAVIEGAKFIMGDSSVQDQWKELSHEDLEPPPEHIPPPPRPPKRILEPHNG
Description: PTP1β tyrosine phosphatase drug discovery kit is a colorimetric, non-radioactive assay designed to measure the phosphatase activity of purified PTP1β. […] Following incubation at 37 °C for 30 min, the reaction was terminated with the BIOMOL RED^TM reagent. The amount of […] produced was estimated by measuring the absorbance at 620 nm. The non-enzymatic hydrolysis of the IR5 substrate was corrected by measuring the increase in absorbance at 620 nm obtained in the absence of PTP1β enzyme.

[6] = ABTS^+ radical scavenging activity assay; conditions: for IC50 / IC50 ABTS^+ radical scavenging: isolated compounds
Description: The method described by Li et al. was used with slight modifications. ABTS^+ diammonium salt (2 mM) and potassium persulfate (3.5 mM) were mixed, diluted in distilled water and kept in the dark at room temperature for 24 h before use. After addition of ABTS^+ solution to 10 µL of antioxidant, measurements were recorded at 10 min post reaction. The percentage inhibition of absorbance at 750 nm was calculated and plotted as a function of concentration of antioxidants. Trolox was used as positive control.

[7] = Table 2, crude extract and fractions, - is no activity

In the case of `O=C(/C=C/c1ccc(O)c(O)c1)O[C@H]1[C@H](O)C[C@](O)(C(=O)O)C[C@H]1OC(=O)/C=C/c1ccc(O)c(O)c1` [3,4-di-O-CQA], the IC50 [1] is given as 187 µM.

In the case of `COc1cc(-c2oc3cc(O)cc(O)c3c(=O)c2O[C@@H]2O[C@H](CO)[C@@H](O)[C@H](O)[C@H]2O)ccc1O` [3′-methoxyhirsutrin], the IC50 [2] is listed as 64 µM.

In the case of `O=C(/C=C/c1ccc(O)c(O)c1)O[C@@H]1[C@H](O)C[C@@](O)(C(=O)O)C[C@H]1OC(=O)/C=C/c1ccc(O)c(O)c1` [4,5-di-O-CQA], the IC50 [1] is listed as 131 µM.

For `C[C@H]1O[C@H](O[C@H]2[C@H](O)[C@@H](O)[C@@H](O[C@H]3[C@H](O)[C@@H](O)C(O)O[C@@H]3CO)O[C@@H]2CO)[C@H](O)[C@@H](O)[C@@H]1N[C@H]1C=C(CO)[C@@H](O)[C@H](O)[C@H]1O` (some centres unmarked) [Acarbose, reference compound], the “Inhibition (%) α-glucosidase” value ([3]; 50 μg/mL, - is no activity) was 16.98%, the “Inhibition (%) α-glucosidase” value ([3]; 250 μg/mL) was 41.06% and the “Inhibition (%) α-glucosidase” value ([3]; 500 μg/mL) was 60.29%. The “Inhibition (%) α-glucosidase” value ([3]; 1000 μg/mL) was 106.14%, the “IC50 α-glucosidase” value [3, 7] was 377.19 ± 38.17 µg/mL (≈ 584 µM) and the IC50 ([3]; isolated compounds) was 585 µM. For the same compound, the “IC50 α-glucosidase” value ([3]; isolated compounds, - is no activity) was 377.19 ± 37.8 µg/mL (≈ 584 µM).

With `N=C(N)NN` [Aminoguanidine, reference compound] the “Inhibition (%) AGEs” value ([4]; 50 μg/mL) was 27.97%, the “Inhibition (%) AGEs” value ([4]; 100 μg/mL) was 37.84% and the “Inhibition (%) AGEs” value ([4]; 200 μg/mL) was 61.01%. For the same compound, the “Inhibition (%) AGEs” value ([4]; 400 μg/mL) was 98.17%, the “IC50 AGEs” value ([4]; Table 2, crude extract and fractions) was 166.22 ± 16.29 µg/mL (≈ 2240 µM) and the IC50 ([4]; isolated compounds) was 1410 µM. For the same compound, the “IC50 AGEs” value ([4]; isolated compounds) was 155.88 ± 15.45 µg/mL (≈ 2100 µM).

`Cc1ccc(C(=O)Nc2ccc(S(=O)(=O)O)c3cc(S(=O)(=O)O)cc(S(=O)(=O)O)c23)cc1NC(=O)c1cccc(NC(=O)Nc2cccc(C(=O)Nc3cc(C(=O)Nc4ccc(S(=O)(=O)O)c5cc(S(=O)(=O)O)cc(S(=O)(=O)O)c45)ccc3C)c2)c1` [Suramin, reference compound] gave an inhibition at 1.43 µg/mL ([5]; 1.43 μg/mL) of 10.4%, an inhibition at 3.57 µg/mL ([5]; 3.57 μg/mL) of 26.4% and an inhibition at 7.15 µg/mL ([5]; 7.15 μg/mL) of 52.2%. For the same compound, the inhibition at 14.29 µg/mL ([5]; read-out: Inhibition (%) PTP1β) was 83.6%.

For `Cc1c(C)c2c(c(C)c1O)CCC(C)(C(=O)O)O2` (centres unmarked) [Trolox, reference compound], the “Inhibition (%) ABTS^+” value ([6]; 1.66 μg/mL) was 17.27%, the “Inhibition (%) ABTS^+” value ([6]; 8.33 μg/mL) was 54.14% and the “Inhibition (%) ABTS^+” value ([6]; 16.66 μg/mL) was 95.06%. The “IC50 ABTS^+” value [6, 7] was 7.51 ± 0.58 µg/mL (≈ 30 µM), the IC50 [6] was 29.7 µM and the “IC50 ABTS^+ radical scavenging” value ([6]; - is no activity) was 7.43 ± 0.71 µg/mL (≈ 29.7 µM).

In the case of `O=C(O)c1ccc(O)c(O)c1` [compound 1, protocatechuic acid], the “Inhibition (%) AGEs” value ([4]; 100 μg/mL) is reported as 9.49%, the inhibition at 10 µg/mL [5] is reported as 28.6% and the IC50 [5] is reported as greater than 64.9 µM. For the same compound, the “Inhibition (%) ABTS^+” value ([6]; 1.66 μg/mL) was 25.17%, the “Inhibition (%) ABTS^+” value ([6]; 8.33 μg/mL) was 68.72% and the “Inhibition (%) ABTS^+” value ([6]; 16.66 μg/mL) was 97.22%. The IC50 [6] was 32.9 µM, the “IC50 ABTS^+ radical scavenging” value ([6]; - is no activity) was 4.94 ± 0.38 µg/mL (≈ 32.1 µM) and the “Inhibition (%) α-glucosidase” value ([3]; 50 μg/mL, - is no activity) was 17.45%.

With `O=C(CCO)c1ccc(O)cc1` [compound 2, 3-hydroxy-1-(4-hydroxyphenyl) propan-1-one] the “Inhibition (%) AGEs” value ([4]; 100 μg/mL) was 8.50%, the inhibition at 10 µg/mL [5] was 5.88% and the IC50 [5] was greater than 60.2 µM. For the same compound, the “Inhibition (%) α-glucosidase” value ([3]; 50 μg/mL, - is no activity) was 8.60%.

For `Nc1ccn([C@@H]2O[C@H](CO)[C@@H](O)[C@H]2O)c(=O)n1` [compound 3, cytidine], the “Inhibition (%) AGEs” value ([4]; 100 μg/mL) was 33.16%, the inhibition at 10 µg/mL [5] was less than 0% and the IC50 [5] was greater than 41.1 µM. The “Inhibition (%) α-glucosidase” value ([3]; 50 μg/mL, - is no activity) was 4.70%.
